According to patent US20140056983A1, “FOOD ADDITIVE FOR RUMINANTS BASED ON EUGENOL AND CINNAMALDEHYDE” (priority 2005, published 2014):

Experiments:
[1] = tested on: liquid taken from the rumen; assay: Study 1: in vitro digestibility of dehydrated alfalfa in rumen liquid (Tilley and Terry method); parameters: species or system cows; settings: for ADFd (digestibility of acid digestible fiber) / DMd (digestibility of the dry matter) / NDFd (digestibility of neutral digestible fiber): dehydrated alfalfa, 30 ppm additive in total (mixture 15 + 15 ppm), 39° C., 24 hours; for digestibility of the fibers of the dehydrated alfalfa (in words): versus no additive
Protocol: During this first study, the effects of a mixture according to the invention on the digestibility of the feed of the ruminant animals was analyzed, by conducting an “in vitro” study in accordance with the Tilley and Terry method (1963). For a more complete description of this method, please refer to the following publication: […]. and Terry, R. A. 1963. A two stage technique for the in vitro digestion of forage crops. J. Brit. Grassland Soc. 18-104-111. For incubation the following was used: • a) The basic feed made up of 100% dehydrated alfalfa, supplemented by an equal amount of Peugenol, or of cinnamaldehyde, or of a mixture of the two components; • b) MacDougall buffer; • c) Liquid taken from the empty rumen of four animals permanently equipped with a nozzle on the level of the rumen and nourished with the basic feed. […] The ruminated liquid originated in fistulated cows during the first 100 days of lactation. The state of the first container was preserved, without making any addition. […] In the third container, 30 ppm cinnamaldehyde was added. In the fourth container, 15 ppm of eugenol and 15 ppm of cinnamaldehyde was added. The containers were incubated at 39° C. during 24 hours. The DacronTM sachets were removed, washed and dried at 55° C. Various digestibility parameters were determined according to the Van Soest et al. method (1991). For a more complete description of this method, please refer to the following publication: Van Soest, P. J. Robertson. J. D., and Lewis, B. A. 1991. Methods for dietary fibre, neutral detergent fibre and non-starch polysaccharides in relation to animal nutrition. J. Dairy Se. 74: 3583-3597.

[2] = tested on: Holstein-Freisan milk cows; assay: Study 2: food consumption and dairy production in milk cows, Latin Square 4x4; type: in vivo
Protocol: In the second study, the effect of a variation in the relative proportions of eugenol and cinnamaldehyde in a food additive on the production of meat and the dairy production was tested.
In this test, sixteen Holstein-Freisan milk cows, in their eighth week of lactation, were divided for Latin type Square 4×4 testing. Each period of treatment lasted two weeks.
The first group received a food without an additive.
The second group received a food containing 30 ppm cinnamaldehyde.
The third group received a food containing a mixture of 30 ppm cinnamaldehyde and 15 ppm of eugenol.
The fourth group received a food containing a mixture of 30 ppm eugenol and 16 ppm of cinnamaldehyde.
During each treatment period, the food consumption and the dairy production were measured.

rumen fluid = assay: Study 5: in vitro feed digestibility, dose of the mixture versus monensin (Tilley and Terry method); parameters: species or system cows; settings: after 24 hours; mixture 28% eugenol and 17% cinnamaldehyde at 3, 30, 300 mg per animal/per day; monensin as reference
Protocol: In the table above, the characteristics of each food are expressed as a percentage of dry matter, total protein, neutral digestible fiber (NDF), acid digestible fiber (ADF), for the oats, alfalfa, a complete feed (TMR). […] The effects of a mixture according to the invention on the feed digestibility according to the Tilley and Terry method were analyzed. […] Control bottles were also prepared, containing ethanol, to avoid the parasitic effects of fermentation due to ethanol. […] The results were analyzed by using mixed SAS procedures. The results were compared to the feed containing the monensin. The results from the feed containing monensin were considered a reference result. […] Thus, this fable reflects the digestibility of neutral digestible fiber (NDFd), digestibility of acid digestible fiber (ADFd), and dry matter digestibility (DMd), after 24 hours.

[3] = milk cows, eighth week of lactation, two-week treatment periods, ppm in food

Structure (SMILES)	ADFd (digestibility of acid digestible fiber) [1]	DMd (digestibility of the dry matter) [1]	NDFd (digestibility of neutral digestible fiber) [1]	digestibility of the fibers of the dehydrated alfalfa (in words) [1]	Food Consumption [2, 3]	Milk Production [2, 3]	food consumption (in words) ([2]; versus no additive)	milk production (in words) ([2]; versus no additive)	ADFd (digestibility of acid digestible fiber) (rumen fluid)	DMd (dry matter digestibility) (rumen fluid)	NDFd (digestibility of neutral digestible fiber) (rumen fluid)
O=CC=Cc1ccccc1 [Cinnamaldehyde, cinnamaldehyde]	8.53%	39.06%	4.83%	does not improve	2.571b kg MS/animal/d	37.23 l/animal/d	reduction	reduction	–	–	–
C=CCc1ccc(O)c(OC)c1 [Eugenol, eugenol]	8.05%	40.02%	5.63%	does not improve	–	–	–	–	–	–	–
CC[C@@]1([C@@H]2O[C@@H]([C@H]3O[C@@](O)(CO)[C@H](C)C[C@@H]3C)C[C@@H]2C)CC[C@H]([C@]2(C)CC[C@]3(C[C@H](O)[C@@H](C)[C@@H]([C@@H](C)[C@@H](OC)[C@H](C)C(=O)O)O3)O2)O1 [MON, sodium-monensin]	–	–	–	–	–	–	–	–	24.38	43.43	22.24
